PubChem BioAssay AID330 (DTP/NCI, 2004)
“And” between values parts separate entries of the source, which are not always exact repeats. Equal entries are not always repeated. Toxic doses and inconclusive results are not listed. How the source made its calls: active means survival T/C of 150% or more; inactive means T/C below 125% in these data.

Test system: P388 leukemia ip, CD2F1 mice, survival T/C
Assay: NCI In Vivo Anticancer Drug Screen. Data for tumor model P388 Leukemia (intraperitoneal) in CD2F1 (CDF1) mice
Conditions: endpoint: median survival time, higher = longer survival
In short: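 Mice carrying the transplanted tumor received test compound or vehicle. Survival was recorded in each group, and the value is the treated-group measurement divided by that of the vehicle-treated control group.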

[1] = dose: 60.0 mg/kg/injection, schedule: Q01DX005 (ip), vehicle: saline with Tween-80
[2] = dose: 120.0 mg/kg/injection, schedule: Q01DX005 (ip), vehicle: saline with Tween-80
[3] = dose: 50.0 mg/kg/injection, schedule: Q01DX009 (ip), vehicle: saline
[4] = dose: 100.0 mg/kg/injection, schedule: Q01DX009 (ip), vehicle: saline

Measured: T/C

OCC1OC(n2cnc3c(NO)nc(NO)nc32)C(O)C1O (configuration not stated)
active: dose: 54.0 mg/kg/injection, schedule: Q01DX009 (ip), vehicle: saline 184 % of control
inactive: dose: 2.25 mg/kg/injection, schedule: Q01DX009 (ip), vehicle: saline 100 % of control | dose: 4.5 mg/kg/injection, schedule: Q01DX009 (ip), vehicle: saline 114 % of control | dose: 14.3 mg/kg/injection, schedule: Q01DX009 (ip), vehicle: saline 107 % of control | dose: 18.0 mg/kg/injection, schedule: Q01DX009 (ip), vehicle: saline 114 % of control

N#CC(c1ccccc1)c1ccc2ccccc2n1 (configuration not stated)
inactive: [1] 92 % of control | [2] 86 % of control

COC(=O)CCC(C(C)=O)C(=O)OC (configuration not stated)
inactive: dose: 60.0 mg/kg/injection, schedule: Q01DX005 (ip), vehicle: saline 105 % of control | dose: 120.0 mg/kg/injection, schedule: Q01DX005 (ip), vehicle: saline 110 % of control | dose: 240.0 mg/kg/injection, schedule: Q01DX005 (ip), vehicle: saline 107 % of control

CC(C)C(O)(C(=O)OCN1C(=O)C2C3C=CC(C2C1=O)C1C2C(=O)N(COC(=O)C(O)(C(C)C)C(C)O)C(=O)C2C31)C(C)O (configuration not stated)
inactive: dose: 12.5 mg/kg/injection, schedule: Q01DX009 (ip), vehicle: saline 110 % of control | dose: 25.0 mg/kg/injection, schedule: Q01DX009 (ip), vehicle: saline 103 % of control | [3] 109 % of control | [4] 115 % of control

COc1cc(C)c(O)c(C/C=C(\C)CC2=C[C@@]3(C)CCC[C@@]3(C)[C@]3(CC(O)C(C)(C)O3)O2)c1 (some centres not stated)
inactive: dose: 20.0 mg/kg/injection, schedule: Q01DX005 (ip), vehicle: saline with Tween-80 98 % of control | dose: 40.0 mg/kg/injection, schedule: Q01DX005 (ip), vehicle: saline with Tween-80 100 % of control | dose: 80.0 mg/kg/injection, schedule: Q01DX005 (ip), vehicle: saline with Tween-80 119 % of control

O=S(O)Cc1ccccc1CSSSCc1ccccc1CS(=O)O
inactive: dose: 25.0 mg/kg/injection, schedule: Q01DX005 (ip), vehicle: saline 114 % of control | dose: 50.0 mg/kg/injection, schedule: Q01DX005 (ip), vehicle: saline 114 % of control | dose: 100.0 mg/kg/injection, schedule: Q01DX005 (ip), vehicle: saline 114 % of control | dose: 200.0 mg/kg/injection, schedule: Q01DX005 (ip), vehicle: saline 112 % of control

CC[C@@]1(O)C[C@H](OC2CC(N(C)C)C(O)C(C)O2)c2c(O)c3c(c(O)c2[C@H]1OC1CC(N(C)C)C(O)C(C)O1)C(=O)c1cccc(O)c1C3=O (some centres not stated)
inactive: dose: 0.03 mg/kg/injection, schedule: Q01DX009 (ip), vehicle: other 118 % of control | dose: 0.03 mg/kg/injection, schedule: Q04DX003 (ip), vehicle: other 112 % of control | dose: 0.06 mg/kg/injection, schedule: Q04DX003 (ip), vehicle: other 114 % of control | dose: 0.13 mg/kg/injection, schedule: Q04DX003 (ip), vehicle: other 124 % of control | dose: 0.25 mg/kg/injection, schedule: Q04DX003 (ip), vehicle: other 121 % of control | dose: 0.5 mg/kg/injection, schedule: Q04DX003 (ip), vehicle: other 93 % of control

CC1=NN(C(=O)c2ccccc2)C(=O)C1N=Nc1ccc(Cl)cc1 (configuration not stated)
inactive: dose: 100.0 mg/kg/injection, schedule: Q01DX001 (ip), vehicle: saline with Tween-80 94 % of control | dose: 200.0 mg/kg/injection, schedule: Q01DX001 (ip), vehicle: saline with Tween-80 94 % of control | dose: 400.0 mg/kg/injection, schedule: Q01DX001 (ip), vehicle: saline with Tween-80 88 % of control

CCN(CC)Cc1ccc(N)cc1O
inactive: [3] 106 % of control and 107 % of control | [4] 97 % of control and 98 % of control | dose: 200.0 mg/kg/injection, schedule: Q01DX009 (ip), vehicle: saline 99 % of control and 97 % of control

O=C(O[Si](Cc1ccccc1)(Cc1ccccc1)Cc1ccccc1)N(CCCl)CCCl
active: dose: 25.0 mg/kg/injection, schedule: Q04DX003 (ip), vehicle: saline 154 % of control | dose: 50.0 mg/kg/injection, schedule: Q04DX002 (ip), vehicle: saline with Tween-80 159 % of control | dose: 50.0 mg/kg/injection, schedule: Q04DX003 (ip), vehicle: saline 214 % of control | dose: 100.0 mg/kg/injection, schedule: Q04DX002 (ip), vehicle: saline with Tween-80 180 % of control
inactive: dose: 12.5 mg/kg/injection, schedule: Q04DX002 (ip), vehicle: saline with Tween-80 111 % of control | dose: 25.0 mg/kg/injection, schedule: Q04DX002 (ip), vehicle: saline with Tween-80 120 % of control

CCOc1ccc(C(C[N+](=O)[O-])Sc2ccccc2N)cc1 (configuration not stated)
inactive: [1] 97 % of control | [2] 106 % of control | dose: 240.0 mg/kg/injection, schedule: Q01DX005 (ip), vehicle: saline with Tween-80 113 % of control
